The source made the active and inactive calls. The rule behind the calls is not given here. Bounds are passed on as bounds.

Assay [1] addresses Receptor tyrosine-protein kinase erbB-2 (Homo sapiens, UniProt P04626). The assay is described as follows: Inhibition of HER2 (unknown origin) incubated for 40 mins by Kinase-Glo Max assay. The format is cell-based, Sf9. A general note: Kinase-Glo measures the ATP left after a reaction by luminescence.
Assay [2] is described as follows: Photocytotoxicity against human Lapatinib-resistant MDA-MB-453 assessed as reduction in cell viability incubated for 72 hrs in presence of LED light irradiation of 100 mW/cm2 at 400 to 700 nm by CCK-8 assay. It counts as functional, cell-based. Conditions: Lapatinib-resistant MDA-MB-453, light or radiation study. (In general: Tetrazolium assays rely on reduction of a dye to a coloured formazan, in cell work by metabolically active cells.)

The nature of assay [3]: Photocytotoxicity against human Lapatinib-resistant MDA-MB-453 assessed as inhibition of cell growth under hypoxic condition incubated for 72 hrs in presence of LED light irradiation of 100 mW/cm2 at 400 to 700 nm by CCK-8 assay. The format is functional, cell-based. The note with it: Lapatinib-resistant MDA-MB-453, light or radiation study.
The subject of assay [4] is MDA-MB-453. As to the kind of experiment: Induction of intracellular ROS generation in human MDA-MB-453 cells assessed as increase in green fluorescence signal at 0.5 uM pretreated for 6 hrs followed by irradiation with 400 to 700 nm 100 mW/cm2 LED light for 10 min by DCFH2-DA staining based flow cytometry analysis. The format is functional, cell-based. The note with it: time 370.0 min.

In assay [5] the target is T1, ErbB-2/ErbB-3 heterodimer (Homo sapiens, UniProt P04626+P21860). As to the kind of experiment: Induction of HER2/HER3 degradation in human MDA-MB-453 cells assessed as increase in HER2/HER3 heterodimer incubated for 24 hrs by Co-immunoprecipitation analysis. The format is cell-based.
T1 sequence (P04626 whole entry): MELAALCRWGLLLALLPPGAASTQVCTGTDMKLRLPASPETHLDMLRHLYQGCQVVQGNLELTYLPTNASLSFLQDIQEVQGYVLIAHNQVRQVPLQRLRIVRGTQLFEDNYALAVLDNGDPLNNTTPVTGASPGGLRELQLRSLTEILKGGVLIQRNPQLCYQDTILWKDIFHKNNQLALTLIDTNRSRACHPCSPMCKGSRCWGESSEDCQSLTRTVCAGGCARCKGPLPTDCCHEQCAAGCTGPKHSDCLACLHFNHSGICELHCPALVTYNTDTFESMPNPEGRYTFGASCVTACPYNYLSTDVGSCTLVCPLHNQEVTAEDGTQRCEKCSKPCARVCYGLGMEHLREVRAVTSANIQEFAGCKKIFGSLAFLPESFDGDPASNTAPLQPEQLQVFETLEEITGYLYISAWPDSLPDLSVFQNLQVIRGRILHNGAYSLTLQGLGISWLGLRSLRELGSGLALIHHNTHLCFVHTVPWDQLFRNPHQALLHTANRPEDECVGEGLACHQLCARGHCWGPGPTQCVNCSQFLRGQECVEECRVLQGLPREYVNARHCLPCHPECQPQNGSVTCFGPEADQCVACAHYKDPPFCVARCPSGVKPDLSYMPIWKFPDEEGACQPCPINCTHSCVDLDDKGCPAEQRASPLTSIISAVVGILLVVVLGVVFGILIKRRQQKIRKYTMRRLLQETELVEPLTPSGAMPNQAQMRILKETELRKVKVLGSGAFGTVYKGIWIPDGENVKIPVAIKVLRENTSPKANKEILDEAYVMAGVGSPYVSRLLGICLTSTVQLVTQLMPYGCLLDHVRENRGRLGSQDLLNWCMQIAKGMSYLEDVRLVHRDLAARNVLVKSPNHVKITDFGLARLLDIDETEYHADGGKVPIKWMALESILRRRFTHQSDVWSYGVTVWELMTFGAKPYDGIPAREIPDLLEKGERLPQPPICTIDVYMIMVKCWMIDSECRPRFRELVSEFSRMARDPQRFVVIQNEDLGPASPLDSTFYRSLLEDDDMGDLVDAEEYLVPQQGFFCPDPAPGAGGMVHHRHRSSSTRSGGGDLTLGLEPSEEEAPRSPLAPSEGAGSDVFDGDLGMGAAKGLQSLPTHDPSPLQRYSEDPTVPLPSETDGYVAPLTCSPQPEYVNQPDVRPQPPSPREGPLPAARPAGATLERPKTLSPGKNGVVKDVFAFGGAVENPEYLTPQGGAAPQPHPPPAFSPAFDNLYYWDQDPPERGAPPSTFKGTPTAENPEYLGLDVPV
T1 sequence (P21860 whole entry): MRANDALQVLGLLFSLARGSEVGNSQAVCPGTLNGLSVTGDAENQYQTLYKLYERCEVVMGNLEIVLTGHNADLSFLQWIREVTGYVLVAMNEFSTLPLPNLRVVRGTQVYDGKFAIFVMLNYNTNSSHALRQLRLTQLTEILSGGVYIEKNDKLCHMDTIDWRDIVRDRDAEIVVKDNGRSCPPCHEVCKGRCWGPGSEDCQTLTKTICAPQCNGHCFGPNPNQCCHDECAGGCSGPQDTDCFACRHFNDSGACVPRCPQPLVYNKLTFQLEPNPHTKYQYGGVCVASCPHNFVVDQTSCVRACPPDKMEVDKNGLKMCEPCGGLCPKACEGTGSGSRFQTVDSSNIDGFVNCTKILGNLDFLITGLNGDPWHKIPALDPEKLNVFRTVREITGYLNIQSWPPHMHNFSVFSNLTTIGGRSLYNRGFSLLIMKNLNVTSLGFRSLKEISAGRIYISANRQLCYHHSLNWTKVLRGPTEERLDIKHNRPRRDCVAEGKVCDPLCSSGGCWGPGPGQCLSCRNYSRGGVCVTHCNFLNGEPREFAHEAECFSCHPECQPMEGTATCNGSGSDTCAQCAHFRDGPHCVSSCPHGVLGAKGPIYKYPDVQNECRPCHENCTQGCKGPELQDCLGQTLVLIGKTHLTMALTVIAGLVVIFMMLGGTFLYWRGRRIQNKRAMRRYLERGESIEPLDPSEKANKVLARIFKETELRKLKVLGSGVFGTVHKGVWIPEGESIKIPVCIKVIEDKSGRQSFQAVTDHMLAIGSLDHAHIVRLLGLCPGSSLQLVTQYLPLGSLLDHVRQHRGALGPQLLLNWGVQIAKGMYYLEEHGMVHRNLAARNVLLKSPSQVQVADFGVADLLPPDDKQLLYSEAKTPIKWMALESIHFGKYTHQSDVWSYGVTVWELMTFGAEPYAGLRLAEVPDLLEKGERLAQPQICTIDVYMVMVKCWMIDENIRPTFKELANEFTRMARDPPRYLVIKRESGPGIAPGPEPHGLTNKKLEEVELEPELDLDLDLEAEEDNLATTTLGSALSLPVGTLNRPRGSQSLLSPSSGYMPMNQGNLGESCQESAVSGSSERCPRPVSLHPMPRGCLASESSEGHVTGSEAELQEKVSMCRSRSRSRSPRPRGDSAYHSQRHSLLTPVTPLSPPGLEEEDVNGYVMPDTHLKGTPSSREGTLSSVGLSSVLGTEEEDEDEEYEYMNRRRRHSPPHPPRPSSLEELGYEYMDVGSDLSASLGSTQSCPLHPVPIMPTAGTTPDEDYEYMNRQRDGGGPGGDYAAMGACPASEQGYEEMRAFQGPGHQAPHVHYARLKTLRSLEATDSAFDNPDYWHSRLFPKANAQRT
In assay [6] the target is T1, ErbB-2/ErbB-3 heterodimer. The assay is described as follows: Induction of HER2/HER3 degradation in human MDA-MB-453 cells assessed as decrease in HER2/HER3 heterodimer preincubated for 24 hrs followed by irradiation with 400 to 700 nm 100 mW/cm2 LED light for 10 min by Co-Immunoprecipitation Analysis. The note with it: time 1450.0 min. The format is cell-based.
Assay [7] addresses T1, ErbB-2/ErbB-3 heterodimer. As to the kind of experiment: Induction of HER2/HER3 degradation in human MDA-MB-453 cells assessed as HER2 degradation preincubated for 24 hrs followed by irradiation with 400 to 700 nm 100 mW/cm2 LED light for 10 min by Western blot analysis. The format is cell-based.
For assay [8], the target named is T1, ErbB-2/ErbB-3 heterodimer. The assay is described as follows: Induction of HER2/HER3 degradation in human MDA-MB-453 cells assessed as HER3 degradation preincubated for 24 hrs followed by irradiation with 400 to 700 nm 100 mW/cm2 LED light for 10 min by Western blot analysis. It counts as cell-based. In general terms: Immunoblotting shows a protein as a band on a membrane.

Assay [9] addresses Serine/threonine-protein kinase AKT (Homo sapiens) (UniProt P31751+Q9Y243+P31749). As to the kind of experiment: Inhibition of AKT phosphorylation in human MDA-MB-453 cells at 0.5 uM preincubated for 24 hrs followed by irradiation with 400 to 700 nm 100 mW/cm2 LED light for 10 min by Western blot analysis. The format is cell-based. Conditions: time 1450.0 min.
In assay [10] the target is Mitogen-activated protein kinase; ERK1/ERK2 (Homo sapiens) (UniProt P27361+P28482). The assay is described as follows: Inhibition of Erk1/2 phosphorylation in human MDA-MB-453 cells at 0.5 uM preincubated for 24 hrs followed by irradiation with 400 to 700 nm 100 mW/cm2 LED light for 10 min by Western blot analysis. It counts as cell-based. The note with it: time 1450.0 min.
Chain of Mitogen-activated protein kinase; ERK1/ERK2 (Homo sapiens) (P27361 whole entry, looked up): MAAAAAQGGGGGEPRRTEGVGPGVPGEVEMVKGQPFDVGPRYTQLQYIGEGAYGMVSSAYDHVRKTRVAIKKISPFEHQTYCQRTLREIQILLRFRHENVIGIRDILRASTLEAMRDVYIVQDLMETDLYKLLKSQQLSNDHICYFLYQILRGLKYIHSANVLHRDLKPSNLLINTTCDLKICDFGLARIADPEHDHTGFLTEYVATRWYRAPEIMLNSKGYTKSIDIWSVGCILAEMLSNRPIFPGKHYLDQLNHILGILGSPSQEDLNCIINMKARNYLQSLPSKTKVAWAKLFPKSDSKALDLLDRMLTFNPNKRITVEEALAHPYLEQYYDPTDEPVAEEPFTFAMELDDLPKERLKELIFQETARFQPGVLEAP
Chain of Mitogen-activated protein kinase; ERK1/ERK2 (Homo sapiens) (P28482 whole entry, looked up): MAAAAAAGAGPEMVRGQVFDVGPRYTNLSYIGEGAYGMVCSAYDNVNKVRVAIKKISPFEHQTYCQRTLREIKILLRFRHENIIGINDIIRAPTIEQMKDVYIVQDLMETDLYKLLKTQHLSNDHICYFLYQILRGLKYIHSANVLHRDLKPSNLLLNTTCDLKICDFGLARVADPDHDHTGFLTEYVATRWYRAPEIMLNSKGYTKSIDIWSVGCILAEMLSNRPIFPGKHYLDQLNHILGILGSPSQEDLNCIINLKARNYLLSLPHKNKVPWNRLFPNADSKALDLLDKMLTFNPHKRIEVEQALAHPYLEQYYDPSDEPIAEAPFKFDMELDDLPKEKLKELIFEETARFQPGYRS

In assay [11] the test system is MDA-MB-453. The assay is described as follows: Induction of apoptosis in human MDA-MB-453 cells assessed as increase in cleaved caspase-3 expression at 0.5 uM preincubated for 24 hrs followed by irradiation with 400 to 700 nm 100 mW/cm2 LED light for 10 min by Western blot analysis. The note with it: time 1450.0 min. The format is functional, cell-based.
The subject of assay [12] is MDA-MB-453. As to the kind of experiment: Induction of apoptosis in human MDA-MB-453 cells assessed as decrease in Bcl-2 expression at 0.5 uM preincubated for 24 hrs followed by irradiation with 400 to 700 nm 100 mW/cm2 LED light for 10 min by Western blot analysis. The format is functional, cell-based. Conditions: time 1450.0 min.
In assay [13] the test system is MDA-MB-453. As to the kind of experiment: Induction of apoptosis in human MDA-MB-453 cells assessed as increase in BAX/Bcl-2 ratio at 0.5 uM preincubated for 24 hrs followed by irradiation with 400 to 700 nm 100 mW/cm2 LED light for 10 min by Western blot analysis. The format is functional, cell-based. The note with it: time 1450.0 min.
In assay [14] the test system is MDA-MB-453. The assay is described as follows: Photocytotoxicity against human MDA-MB-453 cells cultured as 3D spheroids assessed as reduction in diameter of tumor spheroid size at 0.5 to 10 uM pretreated with compound for 10 mins and measured after 72 hrs in presence of 400 to 700 nm 100 mW/cm2 LED light by bright-field microscopic analysis. It counts as functional, cell-based. The note with it: dose 0.5-10 µM, time 4330.0 min.

Assay [15] has as its system MDA-MB-453. The assay is described as follows: Photocytotoxicity against human MDA-MB-453 cells cultured as 3D spheroids assessed as reduction in diameter of tumor spheroid size at 0.5 to 10 uM incubated for 72 hrs by bright-field microscopic analysis. It counts as functional, cell-based. The note with it: dose 0.5-10 µM.
Assay [16] has as its system MDA-MB-453. The assay is described as follows: Photocytotoxicity against human MDA-MB-453 cells cultured as 3D spheroids assessed as reduction in cell density at 0.5 to 10 uM incubated for 72 hrs by bright-field microscopic analysis. The format is functional, cell-based. Conditions: dose 0.5-10 µM.
In assay [17] the test system is MDA-MB-453. The assay is described as follows: Photocytotoxicity against human MDA-MB-453 cells cultured as 3D spheroids assessed as reduction in cell viability incubated for 72 hrs by CCK-8 assay. The format is functional, cell-based. Conditions: MDA-MB-453, 72 h.
Assay [18] relates to MDA-MB-453. As to the kind of experiment: Photocytotoxicity against human MDA-MB-453 cells cultured as 3D spheroids assessed as reduction in cell viability pretreated for 10 mins and measured after 72 hrs in presence of 400 to 700 nm 100 mW/cm2 LED light by CCK-8 assay. The format is functional, cell-based.
The test system of assay [19] is MDA-MB-453. As to the kind of experiment: Photocytotoxicity against human MDA-MB-453 cells cultured as 3D spheroids assessed as increase in dead cells by measuring red fluorescence intensity pretreated with compound for 10 mins and measured after 72 hrs in presence of 400 to 700 nm […] LED light by calcein-AM/PI staining based fluorescence analysis. Conditions: time 4330.0 min. It counts as functional, cell-based.

Assay [20] is described as follows: Photocytotoxicity against human Lapatinib-resistant MDA-MB-453 cells assessed as reduction in cell viability by CCK-8 assay. It counts as functional, cell-based.
Assay [21] concerns MDA-MB-453. The assay is described as follows: Induction of intracellular ROS generation in human MDA-MB-453 cells assessed as increase in green fluorescence signal at […] pretreated for 6 hrs followed by irradiation with 400 to 700 nm 100 mW/cm2 LED light for 10 min by DCFH2-DA staining based flow cytometry analysis. The format is functional, cell-based. The note with it: time 370.0 min.

Chain of Receptor tyrosine-protein kinase erbB-2 (P04626 whole entry): as the sequence (P04626 whole entry) above

Regarding `CC[n+]1c(/C=C/c2ccc(-c3ccc4ncnc(Nc5ccc(OCc6cccc(F)c6)c(Cl)c5)c4c3)s2)sc2ccccc21`, the IC50 (in general, the concentration that gives 50% inhibition) in assay [1] is 105 nM; in [2], 226 nM; in assay [3] it was 585 nM; in [17], above 20000 nM; in assay [18] it was 2130 nM. Besides, the outcome in assay [4], in [6], in [11], in assay [12], in [13] and in assay [14] was Active. Besides, in assay [19], the outcome was Active. The result in [5], in assay [15] and in [16] was inactive. Further, the DC50 (as a rule, the concentration giving 50% degradation) in assay [7] came out at 520 nM; in assay [8], 584 nM. Also, the Activity entry in assay [7] (time 1450.0 min) was “Dose-Dependent Effect”. In addition, the inhibition entry in assay [9] and in assay [10] was “Active” each time.

For the molecule `CC[n+]1c(/C=C/c2ccc(-c3ccc4ncnc(Nc5ccc(OCc6cccc(F)c6)c(Cl)c5)c4c3)o2)sc2ccccc21`, the IC50 amounted to 50 nM in assay [1] and 1560 nM in [2].

Regarding `CS(=O)(=O)CCNCc1ccc(-c2ccc3ncnc(Nc4ccc(OCc5cccc(F)c5)c(Cl)c4)c3c2)o1` [LAPATINIB], the IC50 in [20] was above 5000 nM; in assay [17] it was above 20000 nM.

With `O=S(=O)(O)c1cc(O)c(O)c(S(=O)(=O)O)c1`, in assay [21], the outcome was Active.

Source of the values: ChEMBL document CHEMBL5360595, “Ligand-Directed Photodegradation of Interacting Proteins: Oxidative HER2/HER3 Heterodimer Degradation with a Lapatinib-Derived Photosensitizer” (J Med Chem, 2023).
